Source: ChEMBL document CHEMBL1782014, “20(R)-ginsenoside Rh2, not 20(S), is a selective osteoclastgenesis inhibitor without any cytotoxicity” (Bioorg Med Chem Lett, 2009)

Tests used:
[1] = Toxicity in RANKL and TNFalpha-pretreated mouse RAW264 cells assessed as effect on cell proliferation upto 50 uM incubated for 3 days by WST-1 assay; conditions: raw264, 72 h
[2] = Inhibition of RANKL and TNF-alpha-induced osteoclastogenesis in mouse RAW264 cells incubated for 3 days by TRAP staining based method; format: functional, cell-based; conditions: RAW264.7, 72 h
[3] = Toxicity in RANKL and TNFalpha-pretreated mouse RAW264 cells assessed as inhibition of cell proliferation upto 100 uM incubated for 3 days by WST-1 assay; conditions: raw264, 72 h
[4] = tested on: Radical scavenging activity; assay: Antioxidant activity assessed as DPPH radical scavenging activity at 1.6 mM after 20 mins by UV spectrophotometry; format: functional
[5] = Toxicity in RANKL and TNFalpha-pretreated mouse RAW264 cells assessed as inhibition of cell proliferation incubated for 3 days by WST-1 assay; conditions: RAW264 cells pretreated with RANKL and TNFalpha
[6] = tested on: Radical scavenging activity; assay: Antioxidant activity assessed as DPPH radical scavenging activity at 0.2 mM after 20 mins by UV spectrophotometry; format: functional

SMILES | Activity [1] | IC50 [2] | Activity [3] | Activity [4] | IC50 at 3 days [5] | Activity [6]
CC(C)=CCC[C@@](C)(O)[C@H]1CC[C@]2(C)[C@@H]1[C@H](O)C[C@@H]1[C@@]3(C)CC[C@H](O[C@@H]4O[C@H](CO)[C@@H](O)[C@H](O)[C@H]4O)C(C)(C)[C@@H]3CC[C@]12C | Non-toxic | 12 µM | Non-toxic | < 10% |  | 
CC(C)=CCC[C@](C)(O)[C@H]1CC[C@]2(C)[C@@H]1[C@H](O)C[C@@H]1[C@@]3(C)CC[C@H](O[C@@H]4O[C@H](CO)[C@@H](O)[C@H](O)[C@H]4O)C(C)(C)[C@@H]3CC[C@]12C [GINSENOSIDE RH2] |  | 32 µM |  | < 10% | 62 µM | 
Cc1c(C)c2c(c(C)c1O)CC[C@@](C)(CCC[C@H](C)CCC[C@H](C)CCCC(C)C)O2 |  |  |  |  |  | 96%
